For 21 compounds, IC50 results are on record in patent US8501755B2, “Tetrahydropyridothienopyrimidine compounds and methods of use thereof” (Bayer Intellectual Property GmbH, priority 2006, dated 2013).

Format in all cases: cell-based
The subject of assay [1] is A431 cells. In words: In vitro tumor cell proliferation assay (Cell Titer-Glo) in A431 cells. The following applies: Homo sapiens, A-431, 72 h, A431 human epidermoid carcinoma overexpressing HER1; 72 hours exposure; read-out: IC50, activities in A431 cell lines. The procedure, abridged: (§1)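 Viability after 72 h drug exposure at 37 °C was read as CellTiter-Glo ATP luminescence, giving IC50. Cells (2.5×10^3/well, RPMI + 10% FBS) were compound-treated one day post-seeding, 0.1% DMSO final: A431 overexpresses HER1, N87 overexpresses HER2 and HER1.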

Assay [2] concerns N87. As to the kind of experiment: In vitro tumor cell proliferation assay (Cell Titer-Glo) in N87 cells. The following applies: N87 human gastric carcinoma overexpressing HER2 and HER1; 72 hours exposure; read-out: IC50, activities in N87 cell lines. The procedure, abridged: as §1
Assay [3] deals with H1975 cells. In words: In vitro tumor cell proliferation assay (Cell Titer-Glo) in H1975 cells. The following applies: NCI-H1975; H1975 human NSCLC expressing mutant HER1 (L858R,T790M); 72 hours exposure; read-out: IC50, activities in H 1975 cell lines. The procedure, abridged:
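After 72 h compound exposure at 37° C (top 10 uM down to 64 pM, 0.1% DMSO), viability of EGFR L858R/T790M-mutant H1975 cells was read as ATP luminescence.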

By IC50 is commonly meant the midpoint of a concentration-inhibition curve. Take `CC1CCCN1C/C=C/C(=O)N1CCc2c(sc3ncnc(Nc4ccc(F)c(Cl)c4)c23)C1` (stereo not drawn) [Example 59, N-(3-chloro-4-fluorophenyl)-7-[(2E)-4-(2-methylpyrrolidin-1-yl)but-2-enoyl]-5,6,7,8-tetrahydropyrido [4′,3′:4,5]thieno[2,3-d]pyrimidin-4-amine]: the half-maximal inhibitory concentration (IC50) in assay [1], in assay [2] and in assay [3] was less than 200 nM throughout.

For `O=C(/C=C/CN1CCOCC1)N1CCc2c(sc3ncnc(Nc4ccc(OCc5cccnc5)c(Cl)c4)c23)C1` [Example 89, N-[3-chloro-4-(pyridin-3-ylmethoxy)phenyI]-7-[(2E)-4-morpholin-4-ylbut-2-enoyl]-5,6,7,8-tetrahydropyrido [4′,3′:4,5]thieno[2,3-d]pyrimidin-4-amine], the IC50 in assay [1] was 1000 to 10000 nM; in assay [2] it was less than 200 nM; in assay [3], 200 to 1000 nM.

`CC1CCCN1C/C=C/C(=O)N1CCc2c(sc3ncnc(Nc4cccc(Br)c4)c23)C1` (stereo not drawn) [Example 207, N-(3-bromophenyl)-7-[(2E)-4-(2-methylpyrrolidin-1-yl)but-2-enoyl]-5,6,7,8-tetrahydropyrido [4′,3′:4,5]thieno[2,3-d]pyrimidin-4-amine]: the results for the IC50 in assay [1], in assay [2] and in assay [3] were 200 to 1000 nM, less than 200 nM and 200 to 1000 nM, respectively.

In the case of `CC(C)N(C)C/C=C/C(=O)N1CCc2c(sc3ncnc(Nc4ccc5c(cnn5Cc5ccccc5)c4)c23)C1` [Example 107, N-(1-benzyl-1H-indazol-5-yl)-7-{(2E)-4-[isopropyl(methyl)amino]but-2-enoyl}-5,6,7,8-tetrahydropyrido [4′,3′:4,5]thieno[2,3-d]pyrimidin-4-amine], the IC50 in assay [1], in assay [2] and in assay [3] was less than 200 nM each time.

Regarding `O=C(/C=C/CN1CCOCC1)N1CCc2c(sc3ncnc(Nc4ccc(OCc5ccccn5)c(Cl)c4)c23)C1` [Example 1, 1-{4-[3-Chloro-4-(pyridin-2-ylmethoxy)-phenylamino]-5,8-dihydro-6H-9-thia-1,3,7 triaza-fluoren-7-yl}-4-morpholin-4-yl-but-2-en-1-one], the IC50 in assay [1] is less than 200 nM; in assay [2], less than 200 nM; in assay [3] it was 200 to 1000 nM.

Consider `CCN(C)C/C=C/C(=O)N1CCc2c(sc3ncnc(Nc4ccc5c(cnn5Cc5cccc(F)c5)c4)c23)C1` [Example 115, 7-{(2E)-4-[ethyl(methyl)amino]but-2-enoyl}-N-[1-(3-fluorobenzyl)-1H-indazol-5-yl]-5,6,7,8-tetrahydropyrido [4′,3′:4,5]thieno[2,3-d]pyrimidin-4-amine], for which the IC50 in assay [1], in assay [2] and in assay [3] was less than 200 nM each time.

As to `O=C(/C=C/CN1CCCCCC1)N1CCc2c(sc3ncnc(Nc4ccc(OCc5ccccn5)c(Cl)c4)c23)C1` [Example 68, 7-[(2E)-4-azepan-1-ylbut-2-enoyl]-N-[3-chloro-4-(pyridin-2-ylmethoxy)phenyl]-5,6,7,8-tetrahydropyrido [4′,3′:4,5]thieno[2,3-d]pyrimidin-4-amine], the IC50 in assay [1] was 200 to 1000 nM; in assay [2], less than 200 nM; in assay [3], 200 to 1000 nM.

As to `CN1CCC=C(C(=O)N2CCc3c(sc4ncnc(Nc5ccc(F)c(Cl)c5)c34)C2)C1` [Example 29, N-(3-chloro-4-fluorophenyl)-7-[(1-methyl-1,2,5,6-tetrahydropyridin-3-yl)carbonyl]5,6,7,8-tetrahydropyrido [4′,3′:4,5]thieno[2,3-d]pyrimidin-4-amine], the IC50 in assay [1] was 1000 to 10000 nM; in assay [2], 200 to 5000 nM; in assay [3], 1000 to 10000 nM.

As to `CC(C)N(C)C/C=C/C(=O)N1CCc2c(sc3ncnc(Nc4ccc(OCc5ccccn5)c(Cl)c4)c23)C1` [Example 63, N-[3-chloro-4-(pyridin-2-ylmethoxy)phenyl]-7-{(2E)-4-[isopropyl(methyl)amino]but-2-enoyl}-5,6,7,8-tetrahydropyrido [4′,3′:4,5]thieno[2,3-d]pyrimidin-4-amine], the IC50 in assay [1] is 200 to 1000 nM; in assay [2] it was less than 200 nM; in assay [3], 200 to 1000 nM.

Consider `CN(C)C/C=C/C(=O)N1CCc2c(sc3ncnc(Nc4ccc(F)c(Br)c4)c23)C1` [Example 176, N-(3-bromo-4-fluorophenyl)-7-[(2E)-4-(dimethylamino)but-2-enoyl]-5,6,7,8-tetrahydropyrldo [4′,3′:4,5]thieno[2,3-d]pyrimidin-4-amine], for which the figures for the IC50 in assay [1], in assay [2] and in assay [3] were 200 to 1000 nM, less than 200 nM and 200 to 1000 nM, respectively.

As to `CN(C)C/C=C/C(=O)N1CCc2c(sc3ncnc(Nc4ccccc4)c23)C1` [Example 161, 7-[(2E)-4-(dimethylamino)but-2-enoyl]-N-phenyl-5,6,7,8-tetrahydropyrido [4′,3′:4,5]thieno[2,3-d]pyrimidin-4-amine], the concentration for half-maximal inhibition (IC50) in assay [1] is 200 to 1000 nM; in assay [2] it was less than 200 nM; in assay [3] it was 200 to 1000 nM.

Take `CCN(C/C=C/C(=O)N1CCc2c(sc3ncnc(Nc4ccc(F)c(Cl)c4)c23)C1)C1CCCCC1` [Example 61, N-(3-chloro-4-fluorophenyl)-7-{(2E)-4-[cyclohexyl(ethyl)amino]but-2-enoyl}-5,6,7,8-tetrahydropyrido [4′,3′:4,5]thieno[2,3-d]pyrimidin-4-amine]: the IC50 in assay [1] was 200 to 1000 nM; in assay [2], less than 200 nM; in assay [3], 200 to 1000 nM.

For `O=C(/C=C/CN1CCOCC1)N1CCc2c(sc3ncnc(Nc4ccc5c(cnn5Cc5ccccc5)c4)c23)C1` [Example 103, N-(1-benzyl-1H-indazol-5-yl)-7-[(2E)-4-morpholin-4-ylbut-2-enoyl]-5,6,7,8-tetrahydropyrido [4′,3′:4,5]thieno[2,3-d]pyrimidin-4-amine], the half-maximal inhibitory concentration (IC50) in assay [1] was 200 to 1000 nM; in assay [2], less than 200 nM; in assay [3], 1000 to 10000 nM.

As for `O=C(/C=C/CN1CCCCC1)N1CCc2c(sc3ncnc(Nc4ccc5c(ccn5Cc5ccccn5)c4)c23)C1` [Example 114, 7-[(2E)-4-piperidin-1-ylbut-2-enoyl]-N-[1-(pyridin-2-ylmethyl)-1H-indol-5-yl]-5,6,7,8-tetrahydropyrido [4′,3′:4,5]thieno[2,3-d]pyrimidin-4-amine], the IC50 in assay [1], in assay [2] and in assay [3] was less than 200 nM each time.

For `CC(C)N(C)C/C=C/C(=O)N1CCc2c(sc3ncnc(Nc4ccc5c(ccn5Cc5ccccc5)c4)c23)C1` [Example 118, N-(1-benzyl-1H-indol-5-yl)-7-{(2E)-4-[isopropyl(methyl)amino]but-2-enoyl}-5,6,7,8-tetrahydropyrido [4′,3′:4,5]thieno[2,3-d]pyrimidin-4-amine], the IC50 in assay [1], in assay [2] and in assay [3] was less than 200 nM in each case.

Take `CC1CCCN(C/C=C/C(=O)N2CCc3c(sc4ncnc(Nc5ccc(OCc6ccccn6)c(Cl)c5)c34)C2)C1` (stereo not drawn) [Example 67, N-[3-chloro-4-(pyridin-2-ylmethoxy)phenyl]-7-[(2E)-4-(3-methylpiperidin-1-yl)but-2-enoyl]-5,6,7,8-tetrahydropyrido [4′,3′:4,5]thleno[2,3-d]pyrimidin-4-amine]: the IC50 was 200 to 1000 nM in assay [1], less than 200 nM in assay [2] and 200 to 1000 nM in assay [3].

Regarding `C=C(CN(CC)CC)C(=O)N1CCc2c(sc3ncnc(Nc4ccc(OCc5ccccn5)c(Cl)c4)c23)C1` [Example 143, N-[3-chloro-4-(pyridin-2-ylmethoxy)phenyl]-7-{2-[(diethylamino)methyl]acryloyl}-5,6,7,8-tetrahydropyrido[4′,3′:4,5]thieno[2,3-d]pyrimidin-4-amine], the IC50 in assay [1] is 200 to 1000 nM; in assay [2], less than 200 nM; in assay [3], 200 to 1000 nM.

Consider `C=C(CN(CC)CC)C(=O)N1CCc2c(sc3ncnc(Nc4ccc(F)c(Cl)c4)c23)C1` [Example 147, N-(3-chloro-4-fluorophenyl)-7-{2-[(diethylamino)methyl]acryloyl}-5,6,7,8-tetrahydropyrido [4′,3′:4,5]thieno[2,3-d]pyrimidin-4-amine], for which the figures for the half-maximal inhibitory concentration (IC50) in assay [1], in assay [2] and in assay [3] were 200 to 1000 nM, less than 200 nM and 1000 to 10000 nM, respectively.

Take `CN(C/C=C/C(=O)N1CCc2c(sc3ncnc(Nc4ccc5c(cnn5Cc5ccccn5)c4)c23)C1)C(C)(C)C` [Example 128, 7-{(2E)-4-[tert-butyl(methyl)amino]but-2-enoyl}-N-[1-(pyridin-2-ylmethyl)-1H-indazol-5-yl]-5,6,7,8-tetrahydropyrido [4′,3′:4,5]thieno[2,3-d]pyrimidin-4-amine]: the results for the IC50 in assay [1], in assay [2] and in assay [3] were 200 to 1000 nM, less than 200 nM and 200 to 1000 nM, respectively.

For the compound `CN(C)CC/C=C/C(=O)N1CCc2c(sc3ncnc(Nc4ccc(OCc5ccccn5)c(Cl)c4)c23)C1` [Example 150, 1-[4-[3-chloro-4-(pyridin-2-ylmethoxy)-phenylamino]-5,8-dihydro-6H-9-thia-1,3,7-triaza-fluoren-7-yl}-5-dimethylamino-pent-2-en-1-one], the IC50 in assay [1], in assay [2] and in assay [3] was less than 200 nM throughout.

Take `C#Cc1cccc(Nc2ncnc3sc4c(c23)CCN(C(=O)/C=C/CN2CCCC2)C4)c1` [Example 26, N-(3-ethynylphenyl)-7-[(2E)-4-pyrrolidin-1-ylbut-2-enoyl]-5,6,7,8-tetrahydropyrido [4′,3′:4,5]thieno[2,3-d]pyrimidin-4-amine]: the IC50 in assay [1], in assay [2] and in assay [3] was less than 200 nM throughout.
